Experimental data published in patent US7825103B2, “Pyrimidine nucleoside compound or its salt” (Taiho Pharmaceutical Co., Ltd., priority 2005, dated 2010).
Where a name gives a salt, the structure may show the parent alone.

Tests used:
[1] = tested on: Human large intestine cancer cell strain KM20C; assay: Anti-tumor test using nude mouse subcutaneous implantation system with peroral administration of CNDAC compound; format: in vivo, BALB/cA Jcl-nu mice; details: peroral once a day for 14 days, dose equivalent by mole to 18 mg/kg/day of CNDAC, day 29 after grouping, KM20C subcutaneous implant
Procedure: (§1) Human large intestine cancer cell strain KM20C was subcutaneously subcultured in BALB/cA Jcl-nu mice (CLEA Japan, Inc.), and the resultant cancer tissues were cut into 2 mm dice fragments. Each of the fragments was subcutaneously implanted to a 6-week-old BALB/cA Jcl-nu mouse at the back thereof. On day 14 after the implantation, large and small diameters of the resultant tumor were measured, and the volume of the tumor was calculated by the following equation. The mice were grouped (6 animals per group) so that the groups were roughly equal in terms of average tumor volume. Vt=½(Vl)×(Vs)^2 (Equation 1) In the equation, Vt represents tumor volume, Vl represents large diameter of tumor, and Vs represents small diameter of tumor.
Each CNDAC compound was dissolved or suspended in 0.5% hydroxypropyl methyl cellulose solution which had been buffered with 100 mM citrate buffer (pH 6.0). From the next day after grouping, the mixture was perorally administered to each mouse once a day for consecutive 14 days in a dose which is equivalent, by mole, to 18 mg/kg/day of CNDAC.
On day 29 after the grouping, large and small diameters of the subcutaneously implanted tumor of each mouse were measured, and relative tumor volume (RTV) and inhibition rate (IR) were calculated by the following equations to evaluate anti-tumor effect of the compound. RTV=Vt1/Vt2 (Equation 2) In the equation, RTV represents ratio of tumor volume, Vt1 represents tumor volume measured on the day of determination, and […]. IR(%)=[1−(RTVtest)/(RTVcont)]×100 (Equation 3) In the equation, IR represents tumor growth inhibition rate, RTVtest represents mean RTV value of a drug-administered group, and RTVcont represents mean RTV value of a non-treatment group.

[2] = tested on: Human large intestine cancer cell strain KM20C; assay: Anti-tumor test using nude mouse subcutaneous implantation system, peroral administration in an equitoxic dose; format: in vivo, BALB/cA Jcl-nu mice; details: peroral once a day for 14 days, 6 animals per group, FIG. 1
Procedure: as §1, with “15” for “14”, “through use of” for “by”, “the” for “the groups were roughly equal in terms of”, “volume was common to each group.” for “volume.”, “5)” for “1)”
CNDAC, P-CNDAC, or Compound 19 was dissolved or suspended in 0.5% hydroxypropyl methyl cellulose solution which had been buffered with 100 mM citrate buffer (pH 5.0). From the next day of grouping, the mixture was perorally administered to each mouse once a day for consecutive 14 days in an equitoxic dose.
Large and small diameters of the subcutaneously implanted tumor of each mouse were measured twice a week, and relative tumor volume (RTV) was calculated as an index indicating tumor growth through use of the following equations to evaluate anti-tumor effect of the compound. RTV=Vt1/Vt2 (Equation 6) In the equation, RTV represents ratio of tumor volume, Vt1 represents tumor volume measured on the day of determination, and Vt2 represents tumor volume measured on the day of grouping.

[3] = Mus musculus, sc, 696 h, read-out: IR (%) tumor growth inhibition rate

SMILES | melting point | inhibition in vivo [1, 3] | further results
N#C[C@H]1[C@H](O)[C@@H](CO[Si](Cc2ccccc2)(Cc2ccccc2)Cc2ccccc2)O[C@H]1n1ccc(N)nc1=O | 188 °C (dec.) |  | 
CC(C)[C@H](N)C(=O)OC[C@H]1O[C@@H](n2ccc(N)nc2=O)[C@@H](C#N)[C@@H]1O[Si](C)(C)C(C)(C)C (as salt: trifluoroacetate) [Example 32, 5′-O-(L-Valyl)-3′-O-(tert-butyldimethylsilyl)-2′-cyano-2′-deoxy-1-β-D-arabinofuranosylcytosine bis(trifluoroacetate)] | 118 to 120 °C |  | 
CC(C)(C)[Si](OC[C@H]1O[C@@H](n2ccc(N)nc2=O)[C@@H](C#N)[C@@H]1O)(c1ccccc1)c1ccccc1 | 187 °C |  | 
CC(C)C(C)(C)[Si](C)(C)O[C@H]1[C@H](C#N)[C@H](n2ccc(N)nc2=O)O[C@@H]1CO.O=C(O)C(F)(F)F [Example 25, 3′-O-Dimethylthexylsilyl-2′-cyano-2′-deoxy-1-β-D-arabinofuranosylcytosine trifluoroacetate] | 151 to 154 °C |  | 
CC(C)C(C)(C)[Si](C)(C)OC[C@H]1O[C@@H](n2ccc(N)nc2=O)[C@@H](C#N)[C@@H]1O [Example 6, 5′-O-Dimethylthexylsilyl-2′-cyano-2′-deoxy-1-β-D-arabinofuranosylcytosine] | 188 °C (dec.) | 82% | 
CC(C)C[Si](CC(C)C)(CC(C)C)O[C@H]1[C@H](C#N)[C@H](n2ccc(N)nc2=O)O[C@@H]1CO | 101 to 102 °C |  | 
CCCCCCCCCCCCCCCC(=O)Nc1ccn([C@@H]2O[C@H](CO)[C@@H](O)[C@@H]2C#N)c(=O)n1 [P-CNDAC, 4-N-palmitoyl-2′-cyano-2′-deoxy-1-β-D-arabinofuranosylcytosine, reference compound] |  |  | deletion of tumor [2]: no deletion of tumor
CC(C)[C@H](N)C(=O)OC[C@H]1O[C@@H](n2ccc(N)nc2=O)[C@@H](C#N)[C@@H]1O[Si](C)(C)C(C)(C)C(C)C [Example 31, 3′-O-Dimethylthexylsilyl-5′-O-(L-valyl)-2′-cyano-2′-deoxy-1-β-D-arabinofuranosylcytosine bis(trifluoroacetate)] |  | 89% | 
CCCCCCCC[Si](C)(C)O[C@H]1[C@H](C#N)[C@H](n2ccc(N)nc2=O)O[C@@H]1CO [Example 23, 3′-O-(Dimethyl-n-octylsilyl)-2′-cyano-2′-deoxy-1-β-D-arabinofuranosylcytosine] | 153 to 154 °C |  | 
CC[Si](CC)(OC[C@H]1O[C@@H](n2ccc(N)nc2=O)[C@@H](C#N)[C@@H]1O)C(C)C [Example 3, 5′-O-Diethylisopropylsilyl-2′-cyano-2′-deoxy-1-β-D-arabinofuranosylcytosine] |  |  | IR (%) tumor growth inhibition rate [1]: 82%
CC(C)(C)[Si](C)(C)O[C@H]1[C@H](C#N)[C@H](n2ccc(N)nc2=O)O[C@@H]1CO.O=C(O)C(F)(F)F [Example 24, 3′-O-(tert-Butyldimethylsilyl)-2′-cyano-2′-deoxy-1-β-D-arabinofuranosylcytosine trifluoroacetate] | 163 to 165 °C | 83% | 
CC(C)[C@H](N)C(=O)OC[C@H]1O[C@@H](n2ccc(N)nc2=O)[C@@H](C#N)[C@@H]1O[Si](C)(C)C(C)(C)C [Example 32, 5′-O-(L-Valyl)-3′-O-(tert-butyldimethylsilyl)-2′-cyano-2′-deoxy-1-β-D-arabinofuranosylcytosine bis(trifluoroacetate)] |  | 85% | 
CCCCCCCC[Si](C)(C)OC[C@H]1O[C@@H](n2ccc(N)nc2=O)[C@@H](C#N)[C@@H]1O [Example 10, 5′-O-(Dimethyl-n-octylsilyl)-2′-cyano-2′-deoxy-1-β-D-arabinofuranosylcytosine] | 142 °C | 68% | 
CC(C)C(C)(C)[Si](C)(C)OC[C@H]1O[C@@H](n2ccc(N)nc2=O)[C@H](C#N)[C@@H]1O | 187 to 187.5 °C |  | 
N#C[C@H]1[C@H](O)[C@@H](CO)O[C@H]1n1ccc(N)nc1=O [CNDAC, 2′-cyano-2′-deoxy-1-β-D-arabinofuranosylcytosine, reference compound] |  |  | inhibition in vivo at 18 mg/kg/day [1, 3]: 46%; deletion of tumor [2]: no deletion of tumor
CC(C)[Si](OC[C@H]1O[C@@H](n2ccc(N)nc2=O)[C@@H](C#N)[C@@H]1O)(C(C)C)C(C)C [Example 2, 5′-O-Triisopropylsilyl-2′-cyano-2′-deoxy-1-β-D-arabinofuranosylcytosine] | 177 °C (dec.) | 65% | 
N#C[C@H]1[C@H](O)[C@@H](CO[Si](c2ccccc2)(c2ccccc2)c2ccccc2)O[C@H]1n1ccc(N)nc1=O | 203 °C (dec.) |  | 
CC(C)[C@H](N)C(=O)OC[C@H]1O[C@@H](n2ccc(N)nc2=O)[C@@H](C#N)[C@@H]1O[Si](C)(C)C(C)(C)C(C)C (as salt: trifluoroacetate) [Example 31, 3′-O-Dimethylthexylsilyl-5′-O-(L-valyl)-2′-cyano-2′-deoxy-1-β-D-arabinofuranosylcytosine bis(trifluoroacetate)] | 118 to 120 °C |  | 
CC(C)C(C)(C)[Si](C)(C)O[C@H]1[C@@H](C#N)[C@H](n2ccc(N)nc2=O)O[C@@H]1CO | 179 to 182 °C |  | 
CC(C)(C)[Si](C)(C)OC[C@H]1O[C@@H](n2ccc(N)nc2=O)[C@@H](C#N)[C@@H]1O [Example 1, 5′-O-(tert-Butyldimethylsilyl)-2′-cyano-2′-deoxy-1-β-D-arabinofuranosylcytosine] | 185 °C (dec.) | 75% | 
C[Si](C)(OC[C@H]1O[C@@H](n2ccc(N)nc2=O)[C@@H](C#N)[C@@H]1O)c1ccccc1 | 139 to 140 °C |  | 
CC(C)[Si](O[C@H]1[C@H](C#N)[C@H](n2ccc(N)nc2=O)O[C@@H]1CO)(C(C)C)C(C)C [Example 27, 3′-O-Triisopropylsilyl-2′-cyano-2′-deoxy-1-β-D-arabinofuranosylcytosine] | 162 to 163 °C | 85% | 
C[Si](C)(OC[C@H]1O[C@@H](n2ccc(N)nc2=O)[C@@H](C#N)[C@@H]1O)C1CCCCC1 | 152 to 153 °C |  | 
CC(C)(C)[Si]1(C(C)(C)C)OC[C@H]2O[C@@H](n3ccc(N)nc3=O)[C@@H](C#N)[C@@H]2O1 [Example 18, 3′,5′-O-(Di-tert-butylsilanediyl)-2′-cyano-2′-deoxy-1-β-D-arabinofuranosylcytosine] | 139 to 140 °C | 69% | 
CC(C)C(C)(C)[Si](C)(C)O[C@H]1[C@H](C#N)[C@H](n2ccc(N)nc2=O)O[C@@H]1CO.CS(=O)(=O)O | 203 to 204 °C |  | 
CC(C)C[Si](CC(C)C)(CC(C)C)OC[C@H]1O[C@@H](n2ccc(N)nc2=O)[C@@H](C#N)[C@@H]1O [Example 7, 5′-O-Triisobutylsilyl-2′-cyano-2′-deoxy-1-β-D-arabinofuranosylcytosine] | 152 °C | 79% | 
CC(C)C(C)(C)[Si](C)(C)O[C@H]1[C@H](C#N)[C@H](n2ccc(N)nc2=O)O[C@@H]1CO (as salt: hydrochloride) [Example 26, 3′-O-Dimethylthexylsilyl-2′-cyano-2′-deoxy-1-β-D-arabinofuranosylcytosine hydrochloride] | 206 °C (dec.) |  | 
CC[Si](CC)(O[C@H]1[C@H](C#N)[C@H](n2ccc(N)nc2=O)O[C@@H]1CO)C(C)C [Example 21, 3′-O-Diethylisopropylsilyl-2′-cyano-2′-deoxy-1-β-D-arabinofuranosylcytosine] | 161 to 163 °C | 85% | 
